Read-outs that look alike come from different tables or passages of the source.
Key:
[1] = tested on: AMP-evolved E. coli lines; details: ref Spohn et al 2019, cited from earlier work
Source text: Supplement 41467_2019_13618_MOESM13_ESM.xlsx, sheet "Figure 6 and S15" | column: A comprehensive dataset of antimicrobial susceptibility of AMP-adapted lines to antimicrobial peptides (AMPs).

[2] = tested on: E. coli BW25113 overexpression strains (ASKA plasmids); test: Minimum inhibitory concentration (MIC), serial broth dilution, single-gene overexpression strains vs empty-vector control; type: cell-based, Escherichia coli; details: broth dilution, MS medium, 100 µM IPTG, 30 °C, 20-24 h, OD600, 3 replicates
Procedure: Minimum inhibitory concentrations (MIC) were determined with a standard serial broth dilution technique with a minor modification. Specifically, instead of a two-fold dilution series, smaller AMP concentration steps were used (typically 1.2-fold) for two reasons. […] Second, gene overexpressions caused typically only small changes in the MICs of AMPs and therefore higher resolution was required. The protocol was as follows. From a stock solution of an AMP, 12-steps serial dilution was prepared in fresh MS medium in 96-well microtiter plates. Each AMP was represented in 11 different concentrations (3 wells per AMP concentration per strain). Three wells contained only medium to check the growth in the absence of AMP. After overnight growth in MS medium supplemented with chloramphenicol, bacterial strains were diluted 20-fold into fresh MS medium and grown until the cell density reached OD600 ~1. Cells were induced by 100 µM of IPTG and incubated for 1 h at 30 °C with continuous shaking at 300 rpm. Following incubation, approximately half-million cells were inoculated into the wells of the 96-well microtiter plate with a 96‐pin replicator. We used three independent replicates for each strain and the corresponding control. Two rows in the 96-well plate contained only MS medium in order to obtain the background OD value of the medium. Plates were incubated at 30 °C with continuous shaking at 300 rpm. After 20–24 h of incubation, OD600 values were measured in a microplate reader (Biotek Synergy 2).

bacterial membrane = details: literature mining; ref superscript numbers in the cell, listed in Supplementary Data 7 sheet References; cited from earlier work
Source text: Supplement 41467_2019_13618_MOESM10_ESM.xlsx, sheet "AMP details" | column: Pore formation

In the case of “GWGSFFKKAAHVGKHVGKAALTHYL [PLEU, Pleurocidin, antimicrobial peptide from Pleuronectes americanus; cluster C2]”, the “Relative change in MIC (MIC of the AMP-adpated line / MIC of the ancestral strain)” value ([1]; AMP-adapted line BAC5_3) is given as 1, the “Relative change in MIC (MIC of the AMP-adpated line / MIC of the ancestral strain)” value ([1]; AMP-adapted line BAC5_5) is given as 0.8 and the “Relative change in MIC (MIC of the AMP-adpated line / MIC of the ancestral strain)” value ([1]; AMP-adapted line BAC5_7) is given as 1. The “Relative change in MIC (MIC of the AMP-adpated line / MIC of the ancestral strain)” value ([1]; AMP-adapted line BAC5_10) was 1, the “Relative change in MIC (MIC of the AMP-adpated line / MIC of the ancestral strain)” value ([1]; AMP-adapted line CAP18_2) was 2.1 and the “Relative change in MIC (MIC of the AMP-adpated line / MIC of the ancestral strain)” value ([1]; AMP-adapted line CAP18_5) was 2.5. For the same sequence, the “Relative change in MIC (MIC of the AMP-adpated line / MIC of the ancestral strain)” value ([1]; AMP-adapted line CAP18_6) was 2.3, the “Relative change in MIC (MIC of the AMP-adpated line / MIC of the ancestral strain)” value ([1]; AMP-adapted line CAP18_8) was 1.7 and the “Relative change in MIC (MIC of the AMP-adpated line / MIC of the ancestral strain)” value ([1]; AMP-adapted line CAP18_10) was 4.3. The “Relative change in MIC (MIC of the AMP-adpated line / MIC of the ancestral strain)” value ([1]; AMP-adapted line HBD3_3) was 1.3, the “Relative change in MIC (MIC of the AMP-adpated line / MIC of the ancestral strain)” value ([1]; AMP-adapted line HBD3_6) was 1.7 and the “Relative change in MIC (MIC of the AMP-adpated line / MIC of the ancestral strain)” value ([1]; AMP-adapted line HBD3_8) was 1.7. The “Relative change in MIC (MIC of the AMP-adpated line / MIC of the ancestral strain)” value ([1]; AMP-adapted line HBD3_10) was 1.3, the “Relative change in MIC (MIC of the AMP-adpated line / MIC of the ancestral strain)” value ([1]; AMP-adapted line LL37_1) was 1.4 and the “Relative change in MIC (MIC of the AMP-adpated line / MIC of the ancestral strain)” value ([1]; AMP-adapted line LL37_3) was 1.2. The “Relative change in MIC (MIC of the AMP-adpated line / MIC of the ancestral strain)” value ([1]; AMP-adapted line LL37_6) was 1.4, the “Relative change in MIC (MIC of the AMP-adpated line / MIC of the ancestral strain)” value ([1]; AMP-adapted line LL37_7) was 64 and the “Relative change in MIC (MIC of the AMP-adpated line / MIC of the ancestral strain)” value ([1]; AMP-adapted line LL37_10) was 1.6. The “Relative change in MIC (MIC of the AMP-adpated line / MIC of the ancestral strain)” value ([1]; AMP-adapted line PEX_1) was 2.3, the “Relative change in MIC (MIC of the AMP-adpated line / MIC of the ancestral strain)” value ([1]; AMP-adapted line PEX_4) was 2.3 and the “Relative change in MIC (MIC of the AMP-adpated line / MIC of the ancestral strain)” value ([1]; AMP-adapted line PEX_5) was 1.4. The “Relative change in MIC (MIC of the AMP-adpated line / MIC of the ancestral strain)” value ([1]; AMP-adapted line PEX_6) was 2.8, the “Relative change in MIC (MIC of the AMP-adpated line / MIC of the ancestral strain)” value ([1]; AMP-adapted line PEX_7) was 1.7 and the “Relative change in MIC (MIC of the AMP-adpated line / MIC of the ancestral strain)” value ([1]; AMP-adapted line PR39_1) was 1.4. The “Relative change in MIC (MIC of the AMP-adpated line / MIC of the ancestral strain)” value ([1]; AMP-adapted line PR39_2) was 1.1, the “Relative change in MIC (MIC of the AMP-adpated line / MIC of the ancestral strain)” value ([1]; AMP-adapted line PR39_5) was 1 and the “Relative change in MIC (MIC of the AMP-adpated line / MIC of the ancestral strain)” value ([1]; AMP-adapted line PR39_7) was 0.9. The “Relative change in MIC (MIC of the AMP-adpated line / MIC of the ancestral strain)” value ([1]; AMP-adapted line PR39_10) was 0.9, the “Relative change in MIC (MIC of the AMP-adpated line / MIC of the ancestral strain)” value ([1]; AMP-adapted line PROA_2) was 1.6 and the “Relative change in MIC (MIC of the AMP-adpated line / MIC of the ancestral strain)” value ([1]; AMP-adapted line PROA_3) was 0.9. For the same sequence, the “Relative change in MIC (MIC of the AMP-adpated line / MIC of the ancestral strain)” value ([1]; AMP-adapted line PROA_7) was 1.1, the “Relative change in MIC (MIC of the AMP-adpated line / MIC of the ancestral strain)” value ([1]; AMP-adapted line PROA_8) was 1.2 and the “Relative change in MIC (MIC of the AMP-adpated line / MIC of the ancestral strain)” value ([1]; AMP-adapted line PROA_9) was 0.9. For the same sequence, the “Relative change in MIC (MIC of the AMP-adpated line / MIC of the ancestral strain)” value ([1]; AMP-adapted line PXB_2) was 0.9, the “Relative change in MIC (MIC of the AMP-adpated line / MIC of the ancestral strain)” value ([1]; AMP-adapted line PXB_5) was 1.6 and the “Relative change in MIC (MIC of the AMP-adpated line / MIC of the ancestral strain)” value ([1]; AMP-adapted line PXB_6) was 4.8. For the same sequence, the “Relative change in MIC (MIC of the AMP-adpated line / MIC of the ancestral strain)” value ([1]; AMP-adapted line PXB_8) was 2.1, the “Relative change in MIC (MIC of the AMP-adpated line / MIC of the ancestral strain)” value ([1]; AMP-adapted line PXB_10) was 6.3 and the “Relative MIC” value ([2]; overexpression strain mlaD, MIC of the overexpression strain / MIC of the control strain (wild-type carrying the empty plasmid)) was 1. For the same sequence, the “Relative MIC” value ([2]; overexpression strain nikB, MIC of overexpression strain / MIC of empty-plasmid control) was 0.8 and the “Pore formation (whether AMP makes pores in the bacterial membrane)” value (bacterial membrane) was “Yes18”.
